Tests used:
Assay type in all cases: in vivo
[1] = system: Tetranychus urticae (OP-resistant strain), 2-spotted spider mite (TSM); test: 2-spotted spider mite (TSM) plant dip test; set-up: key: 0 = no effect; 1 = 10-25% kill; 2 = 26-35% kill; 3 = 36-45% kill; 4 = 46-55% kill; 5 = 56-65% kill; 6 = 66-75% kill; 7 = 76-85% kill; 8 = 86-99% kill; 9 = 100% kill; conditions: mortality after 2 days
Procedure, shortened: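 Mortality counted 2 days after a 3 s agitated dip of infested Sieva lima bean plants. Compound came from a 10,000 ppm stock in 35% aqueous acetone, with further dilution in water. Each primary leaf carried about 100 OP-resistant mites, allowed to settle ~2 h before dipping.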

[2] = system: Spodoptera eridania, 2nd instar larvae, southern armyworm (SAW); test: Southern armyworm (SAW) leaf dip test; set-up: key: 0 = no effect; 1 = 10-25% kill; 2 = 26-35% kill; 3 = 36-45% kill; 4 = 46-55% kill; 5 = 56-65% kill; 6 = 66-75% kill; 7 = 76-85% kill; 8 = 86-99% kill; 9 = 100% kill
Procedure, shortened: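 Ten 2nd instar caterpillars feed on a Sieva lima bean leaf that was dipped 3 seconds in test solution (stock 10,000 ppm in 35% acetone/water, water-diluted). Five days later, larvae are assessed for death, feeding reduction or abnormal molting.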

[3] = system: Diabrotica virgifera virgifera Leconte, 2nd instar western corn rootworm (WCR); test: Western corn rootworm (WCR) soil test; set-up: key: 0 = no effect; 1 = 10-25% kill; 2 = 26-35% kill; 3 = 36-45% kill; 4 = 46-55% kill; 5 = 56-65% kill; 6 = 66-75% kill; 7 = 76-85% kill; 8 = 86-99% kill; 9 = 100% kill
Procedure, shortened: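 Ten 2nd-instar rootworm larvae are placed in jars of moist soil with millet seed and talc treated with 1.25 mg active ingredient (roughly 50 kg/ha) from a 35% acetone-in-water solution. After 5 days mortality is scored, counting missing larvae as dead.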

[4] = system: Spodoptera eridania, eggs-southern armyworm (SAW-Eggs); test: Southern armyworm eggs (SAW-Eggs) treated diet test; set-up: key: 0 = no effect; 1 = 10-25% kill; 2 = 26-35% kill; 3 = 36-45% kill; 4 = 46-55% kill; 5 = 56-65% kill; 6 = 66-75% kill; 7 = 76-85% kill; 8 = 86-99% kill; 9 = 100% kill; conditions: mortality after 7 days
Method: (§1) Test solutions are prepared by dissolving the test compound in a 35% acetone in water mixture to give a concentration of 10,000 ppm. Subsequent dilutions are made with water as needed. Spodoptera eridania, Eggs-southern Armyworm and Diabrotica undecimpunctata howardi, Eggs-southern Corn Rootworm (SAW-Eggs) and (SCR-Eggs) Wells containing artificial diet are treated with the test solutions and dried. The appropriate insect eggs are then placed in the wells. The wells are covered with vented, adhesive, clear plastic covers. After 7 days, mortality counts are made. [table]

[5] = system: Aphis gossypii, cotton aphid (CA); test: Cotton aphid (CA) cotyledon dip test; set-up: key: 0 = no effect; 1 = 10-25% kill; 2 = 26-35% kill; 3 = 36-45% kill; 4 = 46-55% kill; 5 = 56-65% kill; 6 = 66-75% kill; 7 = 76-85% kill; 8 = 86-99% kill; 9 = 100% kill; conditions: mortality after 5 days
Procedure, shortened: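 Mortality was scored 5 days after dipping aphid-infested cotyledons, colonised overnight from a transfer leaf, into water dilutions of a 35% acetone/water compound solution.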

[6] = system: C. elegans (Bristol strain); test: Evaluation of test compounds against C. elegans (motility, 96-well plate); set-up: key: 9=complete kill in 4 hours; 8=complete kill in 24 hours; 7=markedly reduced motility in approximately 95% of worms in 24 hours; 0=normal motility, same as controls; conditions: motility at 4 and 24 hours
Procedure, shortened: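 Activity is a semi-quantitative visual score of adult and larval movement, read at 4 h and 24 h post-immersion at 20 °C after gentle tapping. Worms were suspended in Na buffer in wells where compound, dissolved in 80% acetone, had been evaporated.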

[7] = system: M. incognita (Root Knot Nematode) larvae; test: Evaluation of test compounds against M. incognita larvae in microtiter plate wells (movement score); conditions: larvae scored for movement after 20-24 hours; note: key: A score of '9' indicates inactive worms with a straight, sticklike morphology; A score of '8' indicates inactive worms with a limp, curled or curved morphology; A score of '7' indicates dead/paralyzed worms after 72 hours
Procedure, shortened: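 Scoring is by larval movement: dead or paralyzed worms count as positive, and a "7" means dead/paralyzed at 72 hours. Freshly hatched root-knot larvae (50-65 per well) in buffered S Medium were incubated with compounds under plate sealers for 20-24 h before the first read.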

[8] = system: Diabrotica undecimpunctata howardi, eggs-southern corn rootworm (SCR-Eggs); test: Southern corn rootworm eggs (SCR-Eggs) treated diet test; set-up: key: 0 = no effect; 1 = 10-25% kill; 2 = 26-35% kill; 3 = 36-45% kill; 4 = 46-55% kill; 5 = 56-65% kill; 6 = 66-75% kill; 7 = 76-85% kill; 8 = 86-99% kill; 9 = 100% kill; conditions: mortality after 7 days
Method: as §1

Row | SMILES | TSM (300 ppm) rating [1] | SAW (300 ppm) rating [2] | WCR (50 ppm) rating [3] | SAW Eggs (300 ppm) rating [4] | CA (300 ppm) rating [5] | Rating Against C. elegans (150 ppm) [6] | M. incognita (150 ppm) score [7] | SCR Eggs (1000 ppm) rating [8]
1 | CC(C)CCCCCOC(=O)CSC(C[N+](=O)[O-])c1ccc(F)cc1 (stereo not drawn) [Example 11] | 0 | 0 | 0 | 0 | 0 | 0 | 0 | –
2 | CCCCC(CC)COC(=O)CSC(C[N+](=O)[O-])c1ccc(F)cc1 (stereo not drawn) [Example 12] | 0 | 0 | 0 | 0 | 0 | 0 | 0 | –
3 | O=[N+]([O-])CC(SCc1ccccc1)c1ccc(F)cc1 (stereo not drawn) [Example 13] | 0 | 0 | 0 | 0 | 7 (7 = 76-85% kill) | 8 | 0 | –
4 | CCCSC(C[N+](=O)[O-])c1ccc(F)cc1 (stereo not drawn) [Example 14] | 0 | 0 | 0 | 0 | 0 | 0 | 0 | –
5 | COC(=O)CSC(C[N+](=O)[O-])c1ccc(F)cc1 (stereo not drawn) [Example 15] | 0 | 0 | 3 (3 = 36-45% kill) | 0 | 0 | 9 | 9 | –
6 | CCOC(=O)CSC(C[N+](=O)[O-])c1ccc(F)cc1 (stereo not drawn) [Example 16] | 0 | 0 | 0 | 0 | 0 | 8 | 9 | –
7 | CCCCOC(=O)CSC(C[N+](=O)[O-])c1ccc(F)cc1 (stereo not drawn) [Example 17] | 5 (5 = 56-65% kill) | 0 | 0 | 0 | 0 | 8 | 9 | –
8 | COC(=O)CSC(C[N+](=O)[O-])c1cccc([N+](=O)[O-])c1 (stereo not drawn) [Example 138] | 0 | 0 | 0 | 0 | 0 | – | 0 | 0
9 | O=C(O)CSC(C[N+](=O)[O-])c1cccnc1 (stereo not drawn) [Example 179] | 0 | 0 | 0 | 0 | 0 | – | 9 | 0
10 | O=C(O)CSC(C[N+](=O)[O-])c1cccs1 (stereo not drawn) [Example 181] | 0 | 0 | 0 | 9 (9 = 100% kill) | 0 | – | 9 | 0
11 | COC(=O)CSC(C[N+](=O)[O-])c1cccs1 (stereo not drawn) [Example 182] | 0 | 0 | 0 | 0 | 0 | – | 9 | 0
12 | CCOC(=O)CSC(C[N+](=O)[O-])c1cccs1 (stereo not drawn) [Example 183] | 0 | 0 | 0 | 0 | 0 | – | 9 | 0
13 | O=C(O)CSC(C[N+](=O)[O-])c1cc(Br)cs1 (stereo not drawn) [Example 190] | 0 | 0 | 0 | 0 | 0 | – | – | 0
14 | COC(=O)CSC(C[N+](=O)[O-])c1cc(Br)cs1 (stereo not drawn) [Example 191] | 0 | 0 | 0 | 0 | 0 | – | – | 0
15 | CCOC(=O)CSC(C[N+](=O)[O-])c1cc(Br)cs1 (stereo not drawn) [Example 192] | 0 | 0 | 0 | 0 | 0 | – | – | 0
16 | CCCOC(=O)CSC(C[N+](=O)[O-])c1cc(Br)cs1 (stereo not drawn) [Example 193] | 0 | 0 | 0 | 0 | 0 | – | – | 0
17 | CCCCOC(=O)CSC(C[N+](=O)[O-])c1cc(Br)cs1 (stereo not drawn) [Example 194] | 0 | 0 | 0 | 0 | 0 | – | – | 0
18 | O=[N+]([O-])CC(SCc1ccccc1)c1cc(Br)cs1 (stereo not drawn) [Example 195] | 0 | 0 | 0 | 0 | 0 | – | – | 0

Source: patent US6358883B1, “Pesticidal and parasiticidal use of 1-aryl-1-(substituted thio, sulfinyl and sulfonyl)-2-nitroethane compounds” (American Cyanamid Company, priority 1998, dated 2002)
